This is an account of results in patent publication US11911356B2, “Regulation of mutant TERT by BRAF V600E/map kinase pathway through FOS/GABP in human cancer” (THE JOHNS HOPKINS UNIVERSITY, priority 2017, dated 2024).

The test system of one assay is TERT expression. Nature of the assay: TERT expression by qRT-PCR in human cancer cell lines treated with inhibitors. It counts as cell-based. The conditions noted are these: for TERT expression: 0.5 uM PLX4032, 24 hours. The procedure: FIG. 2A-2G. BRAF V600E/MAPK pathway regulated TERT expression. (FIG. 2A) TERT expression was analyzed by qRT-PCR in cells treated with 0.5 uM PLX4032 or 0.2 uM AZD6244 for 24 hours (upper panel). The corresponding levels of phosphorylated ERK (p-ERK), total ERK (t-ERK), and beta-actin were detected by Western blotting (lower panel). The relative TERT mRNA expression levels were normalized to the DMSO control group. (FIG. 2B) Luciferase reporting assay of TERT promoter activities in K1 cells treated with DMSO or PLX4032 (0.5 uM). (FIG. 2C, 2D) Specific shRNA against BRAF were used to knock down BRAF in thyroid cancer cell lines BCPAP and K1 and melanoma cell line A375. Scramble shRNA was used as control. Cells were then subjected to Western blotting (FIG. 2C) and qRT-PCR (FIG. 2D). (FIG. 2E) Sequencing of the BRAF exon-15 in the parental and heterozygous BRAF-V600E knock-in SW48 cells. BRAF V600E was knocked in on one allele of BRAF by rAAV technology through homologous recombination and Cre recombinase of the Neo cassette. (FIG. 2F) Western blotting analyses of phosphorylation of ERK (p-ERK), total ERK (t-ERK), BRAF, and beta-actin in the parental and BRAF-V600E knock-in SW48 cells. (FIG. 2G) TERT promoter luciferase reporter assay in SW48 cells with/without BRAF V600E knock-in. **P<0.01, ***P<0.001, by 2-tailed Student's t test. P values are for the comparison of the indicated condition with DMSO (FIG. 2B), scramble (FIG. 2D), or BRAF-WT groups (FIG. 2G). All the values represent the average standard deviation (SD) of triplicate samples from a typical experiment. All the experiments were performed three times with similar results.
(§1) FIG. 3A-3C. MYC regulated TERT expression in a TERT promoter mutation-independent manner. (FIG. 3A) The four indicated cancer cell lines harboring BRAF V600E mutation were treated with 0.5 uM PLX4032 and/or 10 nM MYC-specific siRNA (siMYC) for 24 hours, which were then subjected to Western blotting (upper panel) and qRT-PCR (lower panel). The relative TERT mRNA expression was normalized to the control group. (FIG. 3B, 3C) Parental and BRAF V600E knock-in SW48 cells were treated with control siRNA (siControl) or MYC-specific siRNA (siMYC, 10 nM) for 48 h, followed by Western blotting (FIG. 3B) and luciferase reporter assays (FIG. 3C). *P<0.05, **P<0.01, ***P<0.001, by 2-tailed Student's t test. n.s., not significant. All the values represent the average standard deviation (SD) of triplicate samples from a typical experiment. Similar results were obtained in two additional independent experiments.
FIG. 9A-9B. Summarized effects of PLX4032 (FIG. 9A) and AZD6244 (FIG. 9B) on TERT mRNA expression. Each bar represents the average+SD of the cells with the same genotypes as follows: BRAF-mut and TERT-mut cell lines: BCPAP, K1, OCUT1, A375, and M14; BRAF-mut and TERT-wt cell lines: SK-MEL-1, SK-MEL-3, and RKO; BRAF-wt and TERT-mut cell lines: TPC1, KAT18, C643, CHL-1, SK-MEL-2, and Mewo; BRAF-wt and TERT-wt cell lines: FB1, WRO, and HTORI3. Compared with the corresponding control of DMSO, **P<0.01, ***P<0.001, by independent t-test.
The BRAF V600E-specific inhibitor PLX4032 (#S1267) and the MEK1 inhibitor AZD6244 (#S1008) were purchased from Selleck Chemicals (Houston, TX), dissolved in DMSO with a stock concentration of 10 mM and stored at −20° C. PLX4032 and AZD6244 were used to treat cells for 24 hours at 0.5 μM and 0.2 μM, respectively, where indicated in the manuscript. DMSO was used as the vehicle control.
Total RNA was extracted from cultured cells using the TRIzol reagent (#15596-018; Ambion, Life Technologies, Carlsbad, CA) and reverse-transcribed to cDNA using the SuperScript III First-Strand Synthesis System (#18080-051; Invitrogen, Life Technologies, Carlsbad, CA). Gene expression was analyzed in triplicate using FastStart Universal SYBR Green Master with ROX (#04913850001; Roche Applied Science, Indianapolis, IN) on the Applied Biosystems 7900HT Fast Real-Time PCR System. […]

The test system of a further assay is MYC expression. Nature of the assay: Western blotting of MYC in BRAF V600E cancer cell lines. It counts as cell-based, human. The note with it: four cancer cell lines harboring BRAF V600E; 0.5 uM PLX4032, 24 hours. The procedure: as §1
Cells were lysed in the RIPA buffer (#sc-24948; Santa Cruz Biotechnology, Santa Cruz, CA) with protease inhibitor cocktail (#P8340; Sigma-Aldrich) and phosphatase inhibitor cocktail (#P0044; Sigma-Aldrich) and Western blotting analysis was performed as we previously described^54. […] Signals were detected by SuperSignal™ West Pico PLUS Chemiluminescent Substrate (#34579; Thermo Fisher Scientific). […]

Consider `CCCS(=O)(=O)Nc1ccc(F)c(C(=O)c2c[nH]c3ncc(-c4ccc(Cl)cc4)cc23)c1F` [PLX4032], for which the TERT expression entry in the assay on TERT expression (RKO and SK-MEL-3 cells, wild-type TERT promoter) is “moderate level”; in the assay with TERT expression (all the cells harboring BRAF mutation (FIG. 3A)), “decreased TERT expression”; in the assay on TERT expression (cells harboring both BRAF V600E and TERT promoter mutations) it was “dramatically inhibited TERT expression”; in the assay on TERT expression (cells harboring the wild-type TERT promoter) it was “limited effect”; with TERT expression (cells harboring wild-type BRAF), “no inhibitory effect”; with TERT expression (wild-type BRAF cell lines, especially TERT mutant cells (KAT18, C643 and CHL-1)), “increase in TERT expression”. The “TERT expression after siRNA knockdown of MYC” value in the assay with TERT expression (cells harboring TERT promoter mutations, 0.5 uM PLX4032 with 10 nM siMYC, 24 hours) is “could further inhibit TERT expression”. The MYC expression result in the assay on MYC expression is on record as “suppressed MYC expression”.
